Data from publication PMC8151276, “An Integrated Approach toward NanoBRET Tracers for Analysis of GPCR Ligand Engagement” (Molecules, 2021).

Legend:
Assay type in all cases: binding
[1] = target: T1, ADORA3 (Homo sapiens, UniProt P0DMS8); assay: NanoBRET screen HiBiT-ADORA3 in HEK293; details: ADORA3
T1 construct: purchased Promega (in-house HiBiT-GPCR construct library, NanoBRET)
T1 sequence (P0DMS8 1-318): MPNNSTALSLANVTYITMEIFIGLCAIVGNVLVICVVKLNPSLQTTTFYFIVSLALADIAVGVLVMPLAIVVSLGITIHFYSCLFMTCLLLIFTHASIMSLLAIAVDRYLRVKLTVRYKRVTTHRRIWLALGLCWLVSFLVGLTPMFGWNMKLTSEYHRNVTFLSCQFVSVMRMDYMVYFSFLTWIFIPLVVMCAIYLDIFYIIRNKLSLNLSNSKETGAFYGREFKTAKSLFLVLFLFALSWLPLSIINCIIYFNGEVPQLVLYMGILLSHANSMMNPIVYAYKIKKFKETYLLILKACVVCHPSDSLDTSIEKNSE
Description: (§1) Each tracer candidate was screened across the entire library of HiBiT-GPCR constructs using NanoBRET as the detection modality. As depicted in Figure 4A, the specificity of interactions was evaluated through decrease in BRET due to competitive displacement of a bound tracer by excess parental compound. Each tracer was analyzed for binding to each HiBiT-GPCR fusion in the absence and in the presence of competing parental compound. Briefly, HEK293 cells were transfected with HiBiT-GPCR constructs diluted into promoterless DNA to reduce expression and maximize translocation to the cell surface. Each tracer candidate was then screened at concentrations of 1 μM and 0.1 μM across cells expressing these fusions. Cells were treated for 1.5 h with tracer either alone or in the presence of 20 μM competing parental compound (i.e., control). BRET was measured upon addition of purified LgBiT and subsequent complementation with HiBiT genetically fused to a GPCR. The specificity of interactions was assessed through a decrease in BRET signal due to competitive displacement of the bound tracer. To further gauge the robustness of these interactions, the fold response over the control (i.e., BRETtracer/BRETcontrol) was calculated. We chose a 1.5-fold response, which translates to ≥7-fold signal over noise as the minimal threshold required to score an interaction as positive. […]. Below we highlight the screening results obtained for our exemplary fluorescent tracers based on Clozapine, Amitriptyline and AZD1283.
(§2) HiBiT-GPCR DNA constructs were diluted in 10 mM Tris pH 8 to a final concentration of 0.01 μg/μL, arrayed in 96-well plates and stored at −20 °C. For transfection, HEK293 cells were suspended in Opti-MEM (without phenol red) supplemented with 2% fetal bovine serum (Seradigm) and 100 units/mL penicillin–streptomycin (Gibco) at a final concentration of 220,000 cells/mL and dispensed into white 96-well plates at 90 μL/well. Subsequent transfections and screens were carried using an Agilent Bravo Automated Liquid Handling Platform. First, the 96-well HiBiT DNA arrays were diluted 25-fold in Opti-MEM (without serum or phenol red) to a final concentration of 0.0004 μg/μL and 20 μL of the diluted DNAs were transferred into new 96-well plates. Next, promoterless carrier DNA (1 μg/μL) was diluted 25-fold (0.04 μg/μL) and then dispensed into the diluted arrays at 20 μL/well. Following brief mixing, Viafect transfection reagent (Promega) diluted 16-fold into Opti-MEM was dispensed into the plates at 40 μL/well. After mixing by pipetting, plates were incubated for 10 min on the pipetting station deck. The DNA-transfection reagent complexes were then added to plates containing cells. To facilitate the screen, 10 μL of DNA-transfection reagent complexes were added in duplicates to the top 4 and bottom 4 rows, resulting in two identical 48-well arrays per plate. Plates with transfected cells were incubated for 18–20 h at 37 °C/5% CO2. A screen of each tracer across the entire library using two different concentrations requires duplicate plates of transfected cells. Depending on the number of tracers being screened, transfections can be scaled up using the same ratios. The next day, for each tracer, four 20× screening solutions in tracer dilution buffer (Promega) were prepared: two duplicates at final concentration of 20 μM and two duplicates at a final concentration of 2 μM. A competing unmodified compound was added to one of each duplicate at a final concentration of 400 μM. The four resulting solutions were diluted 4-fold in Opti-MEM without serum or phenol red to generate 5× solutions (5 µM and 0.5 µM tracer +/− 100 μM competing compound). To screen the library, a BioTek MultiFlo FX liquid dispenser was used to dispense 22.5 µL of tracer solution to the top 4 rows and 22.5 µL tracer + competing compound solution to the 4 bottom rows. Plates were briefly mixed on an orbital shaker and incubated for 1.5 h at room temperature. […]

[2] = target: T2, C5AR1 (Homo sapiens, UniProt P21730); assay: NanoBRET screen HiBiT-C5AR1 in HEK293; details: C5AR1
T2 construct: purchased Promega (in-house HiBiT-GPCR construct library, NanoBRET)
T2 sequence (P21730 1-350): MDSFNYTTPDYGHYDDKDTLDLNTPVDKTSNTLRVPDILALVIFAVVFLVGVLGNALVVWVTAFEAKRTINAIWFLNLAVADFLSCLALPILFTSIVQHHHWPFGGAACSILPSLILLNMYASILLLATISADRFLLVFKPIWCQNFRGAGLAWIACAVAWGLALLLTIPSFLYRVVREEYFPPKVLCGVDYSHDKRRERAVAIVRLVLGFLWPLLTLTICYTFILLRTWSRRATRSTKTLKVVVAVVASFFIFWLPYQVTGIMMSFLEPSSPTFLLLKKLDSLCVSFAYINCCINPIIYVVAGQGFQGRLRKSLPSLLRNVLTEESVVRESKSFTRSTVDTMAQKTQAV
Description: as §1, §2

[3] = target: T3, VIPR1 (Homo sapiens, UniProt P32241); assay: NanoBRET screen HiBiT-VIPR1 in HEK293; details: VIPR1
T3 construct: purchased Promega (in-house HiBiT-GPCR construct library, NanoBRET)
T3 sequence (P32241 31-457): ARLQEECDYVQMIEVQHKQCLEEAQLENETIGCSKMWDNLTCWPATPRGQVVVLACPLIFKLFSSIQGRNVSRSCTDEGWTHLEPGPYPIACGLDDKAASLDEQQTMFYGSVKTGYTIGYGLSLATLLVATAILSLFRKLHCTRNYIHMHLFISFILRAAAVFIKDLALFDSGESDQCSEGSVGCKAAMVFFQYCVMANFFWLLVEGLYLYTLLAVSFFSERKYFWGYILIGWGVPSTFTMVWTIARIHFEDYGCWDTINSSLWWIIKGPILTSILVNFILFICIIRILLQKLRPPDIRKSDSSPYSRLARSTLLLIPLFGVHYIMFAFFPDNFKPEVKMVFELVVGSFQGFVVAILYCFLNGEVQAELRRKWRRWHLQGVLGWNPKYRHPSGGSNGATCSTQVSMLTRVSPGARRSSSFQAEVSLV
Description: as §1, §2

[4] = target: T4, NPFFR2 (Homo sapiens, UniProt Q9Y5X5); assay: NanoBRET screen HiBiT-NPFFR2 in HEK293; details: NPFFR2
T4 construct: purchased Promega (in-house HiBiT-GPCR construct library, NanoBRET)
Description: as §1, §2

[5] = target: T5, GRM2 (Homo sapiens, UniProt Q14416); assay: NanoBRET screen HiBiT-GRM2 in HEK293; details: GRM2
T5 construct: purchased Promega (in-house HiBiT-GPCR construct library, NanoBRET)
Description: as §1, §2

T5 sequence (Q14416 19-872): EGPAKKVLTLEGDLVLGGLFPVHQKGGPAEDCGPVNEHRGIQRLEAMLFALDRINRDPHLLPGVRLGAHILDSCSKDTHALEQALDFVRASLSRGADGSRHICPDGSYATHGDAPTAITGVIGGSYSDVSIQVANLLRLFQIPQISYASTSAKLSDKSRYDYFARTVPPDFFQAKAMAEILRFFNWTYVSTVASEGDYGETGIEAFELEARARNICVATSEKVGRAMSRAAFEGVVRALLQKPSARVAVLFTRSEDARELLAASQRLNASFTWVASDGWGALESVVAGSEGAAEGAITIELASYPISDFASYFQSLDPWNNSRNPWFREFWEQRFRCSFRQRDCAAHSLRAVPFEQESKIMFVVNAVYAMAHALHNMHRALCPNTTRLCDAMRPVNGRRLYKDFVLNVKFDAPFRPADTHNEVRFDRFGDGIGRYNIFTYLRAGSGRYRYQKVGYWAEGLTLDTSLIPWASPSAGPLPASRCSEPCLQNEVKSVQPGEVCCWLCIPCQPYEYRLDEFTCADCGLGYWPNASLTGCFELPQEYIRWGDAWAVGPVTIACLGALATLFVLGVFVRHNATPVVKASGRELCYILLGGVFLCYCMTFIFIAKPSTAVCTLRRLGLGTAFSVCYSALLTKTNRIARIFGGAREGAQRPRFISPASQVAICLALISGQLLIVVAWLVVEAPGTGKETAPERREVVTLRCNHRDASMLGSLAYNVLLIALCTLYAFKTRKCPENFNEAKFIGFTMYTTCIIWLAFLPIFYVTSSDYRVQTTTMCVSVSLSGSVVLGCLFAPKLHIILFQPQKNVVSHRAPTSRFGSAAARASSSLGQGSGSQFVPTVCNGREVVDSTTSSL
T4 sequence (Q9Y5X5 whole entry): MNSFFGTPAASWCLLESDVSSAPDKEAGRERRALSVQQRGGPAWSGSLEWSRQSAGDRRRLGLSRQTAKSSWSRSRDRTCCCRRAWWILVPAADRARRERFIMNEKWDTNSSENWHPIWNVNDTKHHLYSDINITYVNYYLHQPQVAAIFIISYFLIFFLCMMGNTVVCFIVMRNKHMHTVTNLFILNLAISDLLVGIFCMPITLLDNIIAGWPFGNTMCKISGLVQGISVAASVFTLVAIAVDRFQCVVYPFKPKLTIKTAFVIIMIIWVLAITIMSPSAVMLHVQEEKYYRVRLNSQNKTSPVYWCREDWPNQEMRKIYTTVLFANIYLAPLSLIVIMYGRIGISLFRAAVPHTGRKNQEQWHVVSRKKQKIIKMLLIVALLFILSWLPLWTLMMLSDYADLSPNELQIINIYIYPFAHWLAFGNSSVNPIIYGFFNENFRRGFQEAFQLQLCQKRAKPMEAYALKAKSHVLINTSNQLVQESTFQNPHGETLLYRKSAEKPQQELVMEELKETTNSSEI

Row | Structure (SMILES) | NanoBRET Fold Response ([1]; tracer 0.1μM) | NanoBRET Fold Response ([1]; tracer 1μM) | NanoBRET Fold Response ([2]; tracer 0.1μM) | NanoBRET Fold Response ([2]; tracer 1μM) | NanoBRET Fold Response ([3]; tracer 0.1μM) | NanoBRET Fold Response ([3]; tracer 1μM) | NanoBRET Fold Response ([4]; tracer 0.1μM) | NanoBRET Fold Response ([4]; tracer 1μM) | NanoBRET Fold Response ([5]; tracer 0.1μM) | NanoBRET Fold Response ([5]; tracer 1μM) | also measured
1 | CN1CCN(C2=Nc3cc(Cl)ccc3N(CC(=O)NCCOCCOCCOCCOCCNC(=O)CCc3ccc4n3[B-](F)(F)[N+]3=C(c5ccc[nH]5)C=CC3=C4)c3ccccc32)CC1 [Clozapine-c-2-NB590] | – | – | – | – | – | – | – | – | – | – | NanoBRET Fold Response ([1]; 0.1μM tracer): 1.05; NanoBRET Fold Response ([1]; 1μM tracer): 0.81; NanoBRET Fold Response ([2]; 0.1μM tracer): 1.00; NanoBRET Fold Response ([2]; 1μM tracer): 1.05; NanoBRET Fold Response ([3]; 0.1μM tracer): 0.98; NanoBRET Fold Response ([3]; 1μM tracer): 1.00; NanoBRET Fold Response ([4]; 0.1μM tracer): 0.98; NanoBRET Fold Response ([4]; 1μM tracer): 0.99; NanoBRET Fold Response ([5]; 0.1μM tracer): 0.97; NanoBRET Fold Response ([5]; 1μM tracer): 1.00
2 | O=C(CCc1ccc2n1[B-](F)(F)[N+]1=C(c3ccc[nH]3)C=CC1=C2)NCc1ccc(C(=O)NCCOCCC(=O)N[C@@H]2CC[C@@]3(O)[C@H]4Cc5ccc(O)c6c5[C@@]3(CCN4CC3CC3)[C@H]2O6)cc1 [Naltrexone-3-NB590] | 0.77 | 0.84 | 0.94 | 0.93 | 0.95 | 1.36 | 1.01 | 0.95 | 0.92 | 0.98 | –
3 | Cc1cc2c(s1)Nc1ccccc1N=C2N1CCN(CCCNC(=O)CCOCCOCCOCCOCCNC(=O)CCc2ccc3n2[B-](F)(F)[N+]2=C(c4ccc[nH]4)C=CC2=C3)CC1 [Olanzapine-a-2-NB590] | 0.94 | 1.13 | 1.06 | 1.09 | 1.06 | 1.04 | 0.98 | 1.04 | 1.00 | 1.01 | –
4 | O=C(CCc1ccc2n1[B-](F)(F)[N+]1=C(c3ccc[nH]3)C=CC1=C2)NCc1ccc(C(=O)NCCOCCOCCNCC(O)COc2cccc3ccccc23)cc1 (centres unmarked) [Propranolol-3-NB590] | – | – | – | – | – | – | – | – | – | – | NanoBRET Fold Response ([1]; 0.1μM): 1.04; NanoBRET Fold Response ([1]; 1μM): 0.98; NanoBRET Fold Response ([2]; 0.1μM): 1.05; NanoBRET Fold Response ([2]; 1μM): 1.03; NanoBRET Fold Response ([3]; 0.1μM): 1.03; NanoBRET Fold Response ([3]; 1μM): 1.04; NanoBRET Fold Response ([4]; 0.1μM): 1.01; NanoBRET Fold Response ([4]; 1μM): 1.01; NanoBRET Fold Response ([5]; 0.1μM): 0.94; NanoBRET Fold Response ([5]; 1μM): 1.05
5 | O=C(CCc1ccc2n1[B-](F)(F)[N+]1=C(c3ccc[nH]3)C=CC1=C2)NCCOCCOCCNC(=O)OCCOCCN1CCN(C2=Nc3ccccc3Sc3ccccc32)CC1 [Quetiapine-a-2-NB590] | 0.98 | 0.82 | 1.07 | 0.84 | 1.03 | 0.92 | 0.99 | 0.97 | 0.92 | 1.06 | –
